# Results as given in patent US9801922B2, “Compositions and methods of treating cancer” (UNIVERSITY OF IOWA RESEARCH FOUNDATION, priority 2011, dated 2017).
# Key:
# [1] = test system: HMECs; test: MitoSOX red oxidation, HMEC; type: cell-based, human
# Method: (§1) FIGS. 4A-4C: MitoSOX oxidation in SUM159, MDA-MB231 and HMECs cells treated with BSO, DTPP and AUR. Asynchronously growing cultures of SUM159 (Panel A) MDA-MB231 (Panel B) and HMECs (Panel C) were plated and treated as described in FIG. 1. Monolayer cultures were harvested and trypsinized, washed once with PBS and labeled 20 minutes with 2 μM MitoSOX (in 0.1% DMSO) in PBS containing 5 mM pyruvate at 37° C. Each sample was then analyzed for the Mean fluorescence Intensity (MFI) of 10,000 cells by flow cytometry. Samples were assayed in triplicate; mean±1 SD of 1 experiment containing 3 treatment dishes per group (n=3), * or ^p<0.001 as compared to Control.
# (§2) MitoSOX™ red oxidation to estimate mitochondrial superoxide production: To determine if DTPP can alter steady-state levels of superoxide originating from mitochondria in SUM159, MDA-MB231 and HMEC cells, the cationic superoxide sensitive dye, MitoSOX™red (Molecular Probes), was used. Cells were plated and treated as described earlier in clonogenic survival experiment. After the exposure, cells were trypsinized and washed with 5 mM/L pyruvate containing PBS once then labeled with MitoSOX™red (2 μM, in 0.1% DMSO, 20 minutes) at 37° C. After labeling, cells were kept on ice. Samples were analyzed using a FACScan flowcytometer (Becton Dickinson Immunocytometry System, INC., Mountain View, Calif.) (excitation 488 nm, emission 585 nm band-pass filter). The mean fluorescence intensity of 10,000 cells was analyzed in each sample and corrected for autofluorescence from unlabeled cells. The MFI data was normalized to control levels.
# [2] = test system: Sum159 xenograft tumors; test: ALDH+ cells in Sum159 xenografts in vivo; design: species or system nude mice; conditions: 100 μM DTPP in drinking water 2 weeks; BSO 675 mg/kg i.p.; Au 2.7 mg/kg i.p.
# Method: (§3) FIGS. 1A-D: BSO, DTPP and AUR treated SUM159, MDA-MB231 and HMEC Clonogenic survival. In Panel A (SUM 159), B (MDA-MB231) and C(HMEC), 150,000 cells/dish SUM159 or MDA-MB231 and 300,000 cells/dish were plated in 60 mm tissue culture dishes. After 48 hours, cells were given fresh complete HMECs media and treated with 100 μM BSO+/1 μM DTPP for 24 hours. 500 nM AUR were added 15 mins before the trypsinization of cells for clonogenic survival assay. In panel A-C, The error bars represent mean±1 SD of n=1 treatment dishes done in 3 separate experiments where each treatment dish was used to prepare 6-10 replicate cloning dishes for analysis. *p<0.001 as compared to Control. […] Mice growing Sum159 xenograft tumors were treated with 100 μM DTPP in drinking water for 2 weeks followed by i.p. injections of BSO 675 mg/kg followed in 2 hrs with Au 2.7 mg/kg. The day following injections tumors were harvested, digested and stained for ALDH positive cells. Each bar represents an average of at least three tumors. Error bars are SEM. *p<0.05 vs. control.
# To address this question, SUM159 were treated with these drugs as described in FIG. 1, and aldehyde dehydrogenase (ALDH) activity, a marker of cancer stem cells was examined by ALDEFLUOR assay. […]
# [3] = test system: MDA-MB231 cells; test: MitoSOX red oxidation, MDA-MB231; type: cell-based, human
# Method: as §1, §2
# [4] = test system: normal human mammary epithelial cells (HMEC); test: Clonogenic cell survival, HMEC; type: cell-based; conditions: 100 μM BSO, 1 μM DTPP 24 h, 500 nM AUR 15 min
# Method: as §3
# FIG. 2: BSO and AUR treated SUM159 dose response Clonogenic survival. 150,000 cells/dish SUM159 were plated in 60 mm tissue culture dishes. After 48 hours, cells were given fresh complete HMECs media and treated with 100 μM BSO 24 hours. 500 nM AUR were added 15 mins, 30 mins, 45 mins, 1 hr, 1.5 hrs and 3 hrs before the trypsinization. Cells were then collected and plated for clonogenic survival. […]
# Clonogenic cell survival: To determine whether the DTPP exposure alters the cell proliferation in MDA-MB231, SUM159 and HMECs, 150,000 cells/dish of MDA-MB231 and SUM159 cells, and 300,000 cells/dish HMECs were plated in 60 mm tissue culture dishes. […] Attached and floating cells in the experimental dishes were collected after trypsinization with 1× trypsin-EDTA (CellGro, Herndon, Va., USA), centrifuged, resuspended in fresh media, and counted using a Coulter counter. […]
# [5] = 1 μM DTPP, 100 μM BSO 24 h, 500 nM AUR 15 min
SMILES,"change in MitoSOX oxidation, in words [1]","effect on ALDH positive cells in xenografts, in words [2]","change in MitoSOX oxidation, in words [3]","cytotoxicity (clonogenic survival), in words [4]","increase in MitoSOX oxidation [1, 5] [fold]","increase in MitoSOX red oxidation relative to control [3, 5] [fold]"
"CC[PH](CC)(CC)[Au][S][C@@H]1O[C@H](COC(C)=O)[C@@H](OC(C)=O)[C@H](OC(C)=O)[C@H]1OC(C)=O [AUR, S-triethylphosphinegold(I)-2,3,4,6-tetra-O-acetyl-1-thio-β-D-glucopyranoside]",no effects on MitoSOX oxidation,decrease of ALDH+cells,did not exhibit any change in MitoSOX oxidation,did not cause any significant cytotoxicity,–,–
"CCCCS(=N)(=O)CCC(N)C(=O)O [BSO, L-buthionine-[S,R]-sulfoximine, reference compound]",no effects on MitoSOX oxidation,decrease of ALDH+cells,did not exhibit any change in MitoSOX oxidation,did not cause any significant cytotoxicity,–,–
"CCCCCCCCCC[P+](c1ccccc1)(c1ccccc1)c1ccccc1 [DTPP, Decyl-Triphenylphosphonium]",–,–,–,did not cause any significant cytotoxicity,10,12
